Reference: ChEMBL document CHEMBL3046588, “Design, synthesis, and in vitro evaluation of cytotoxic activity of new substituted 1,4-benzoquinones and hydroquinones” (2007)

Key:
Format in all cases: functional
[1] = Cytotoxicity against Homo sapiens (human) breast cancer cells after 48 hr by SRB assay; settings: Cancer cell lines; for LC50 (concentration giving 50% net cell kill): pooled result: one value given for 9 cell lines, strains, targets or settings
SR = assay: Cytotoxicity against Homo sapiens (human) SR cells after 48 hr by SRB assay
[2] = Cytotoxicity against Homo sapiens (human) prostate cancer cells after 48 hr by SRB assay; settings: Cancer cell lines
[3] = Cytotoxicity against Homo sapiens (human) renal cancer cells after 48 hr by SRB assay; settings: Cancer cell lines
[4] = Cytotoxicity against Homo sapiens (human) ovarian cancer cells after 48 hr by SRB assay; settings: Cancer cell lines
[5] = Cytotoxicity against Homo sapiens (human) CNS cancer cells after 48 hr by SRB assay; settings: Cancer cell lines
[6] = Cytotoxicity against Homo sapiens (human) melanoma cellsafter 48 hr by SRB assay; settings: Melanoma cell
[7] = Cytotoxicity against Homo sapiens (human) colon cancer cells after 48 hr by SRB assay; settings: Cancer cell lines
[8] = Cytotoxicity against Homo sapiens (human) leukemia cells after 48 hr by SRB assay; settings: Leukemia cell
[9] = Cytotoxicity against Homo sapiens (human) non-small cell lung cancer cells after 48 hr by SRB assay; settings: Cancer cell lines
SF-268 = assay: Cytotoxicity against Homo sapiens (human) SF268 cells assessed as cellular growth after 48 hr by Alamar blue assay; set-up: concentration or dose not given beside the values
MCF7 = assay: Cytotoxicity against Homo sapiens (human) MCF7 cells assessed as cellular growth after 48 hr by Alamar blue assay; set-up: concentration or dose not given beside the values
NCI-H460 = assay: Cytotoxicity against Homo sapiens (human) NCI-H460 cells assessed as cellular growth after 48 hr by Alamar blue assay; set-up: concentration or dose not given beside the values

Compound	GI50 [1]	TGI [1]	LC50 (concentration giving 50% net cell kill) [1]	GI50 [2]	TGI [2]	GI50 [3]	TGI [3]	GI50 [4]	TGI [4]	GI50 [5]	TGI [5]	GI50 [6]	TGI [6]	GI50 [7]	TGI [7]	GI50 [8]	TGI [8]	GI50 [9]	TGI [9]	Activity (SF-268)	also measured
Cc1nn(-c2ccc(Br)cc2)c(C)c1CC(=O)c1cc(O)ccc1O	11.4 µM	36.3 µM	48.8 µM	12.4 µM	47.3 µM	12 µM	36.7 µM	14.1 µM	42.4 µM	11.3 µM	29.8 µM	13.1 µM	31.4 µM	11.2 µM	42.1 µM	7.71 µM	46.6 µM	12 µM	32.9 µM	<32%	GI50 (SR): 0.91 µM; Activity (MCF7): <32%; Activity (NCI-H460): <32%
COc1ccc(OC)c(-c2cc(-c3ccc(Cl)cc3)nn2-c2ccccc2)c1	17.7 µM	78.6 µM	99.8 µM	60.5 µM	100 µM	34.9 µM	77.4 µM	49 µM	85.2 µM	29.2 µM	84.3 µM	34.9 µM	70 µM	25.2 µM	82.8 µM	11.1 µM	78.2 µM	40.6 µM	100 µM	<32%	Activity (MCF7): <32%; Activity (NCI-H460): <32%
COc1ccc(OC)c(-c2cc(-c3ccccc3)nn2-c2ccc(S(N)(=O)=O)cc2)c1	12.3 µM	32.9 µM	73 µM	13.9 µM	28.8 µM	13 µM	29.8 µM	13.6 µM	43.7 µM	15 µM	31.1 µM	15.3 µM	40.8 µM	11.9 µM	27.5 µM	6.94 µM	68.5 µM	31.4 µM	40.7 µM	<32%	Activity (MCF7): <32%; Activity (NCI-H460): <32%
COc1ccc(OC)c(-c2cc(-c3ccc(Cl)cc3)nn2-c2ccc(S(N)(=O)=O)cc2)c1	11.5 µM	34 µM	74.7 µM	7.86 µM	20.8 µM	13.5 µM	39.5 µM	16.9 µM	50.8 µM	16.2 µM	37.2 µM	12.8 µM	36.7 µM	0.95 µM	38.4 µM	4.44 µM	52.1 µM	10.9 µM	44.3 µM	<32%	Activity (MCF7): <32%; Activity (NCI-H460): <32%
